Among the data in patent publication US11053226B2, “KRAS G12C inhibitors and methods of using the same” (Amgen Inc., priority 2018, dated 2021) are IC50 values, retold here.

In test [1] the target is GDP-bound KRAS protein (aa 1-169), containing both G12C and C118A amino acid substitutions (Homo sapiens (Human), UniProt P01116, C118A/G12C). Briefly: Coupled Nucleotide Exchange Assay. The test is classed as biochemical. As to the method: For compounds in Table 9, the following assay conditions were employed:
Coupled Nucleotide Exchange Assay:
The assay plates were then read on a PerkinElmer EnVision Multilabel Reader, using AlphaScreen® technology, and data were analyzed using a 4-parameter logistic model to calculate IC50 values.

For test [2], the system named is Phosphorylation of ERK1/2 in MIA PaCa-2 cells. Briefly: Phospho-ERK1/2 MSD Assay. The test is classed as cell-based. The following applies: Homo sapiens, MiaPaCa-2 cells.
Test [3] deals with Phosphorylation of ERK1/2 in A549 cells. Nature of the test: Phospho-ERK1/2 MSD Assay (A549). The test is classed as cell-based. The following applies: Homo sapiens.
[4] abbreviates: read-out: Coupled Exchange IC50 (2 h), 2 h compound pre-incubation.
Setting [5] is: MIA PaCa-2, 4 h, read-out: pERK IC50 (4 h, MiaPaCa-2), 4 h compound treatment.
[6] abbreviates: A549, 4 h, read-out: pERK IC50 (4 h, A549), 4 h compound treatment.
[7] abbreviates: read-out: Coupled Exchange IC50 (20 h), 20 h compound pre-incubation.
The mark [8] stands for this setting: MIA PaCa-2, read-out: pERK IC50 (4 h), 4 h compound treatment.
[9] abbreviates: read-out: pERK IC50 (4 h), 4 h compound treatment.
The mark [10] stands for this setting: read-out: Coupled Exchange IC50 (5 min), 5 min compound pre-incubation.

pIC50: −log10 of the molar value. Where two headings read alike, the source gives them in different places.

Chain of GDP-bound KRAS protein (aa 1-169), containing both G12C and C118A amino acid substitutions (P01116 other isoform, or with tags, fused parts or gaps G12C/C118A): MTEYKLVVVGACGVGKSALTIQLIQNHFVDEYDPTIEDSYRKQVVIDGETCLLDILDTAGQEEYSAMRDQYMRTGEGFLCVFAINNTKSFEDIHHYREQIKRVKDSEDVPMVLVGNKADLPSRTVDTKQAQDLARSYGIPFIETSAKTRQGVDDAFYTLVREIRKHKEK

For the compound `C=CC(=O)N1CC(NC(=O)Cn2c(C)c(C(=O)N3CCc4ccccc4C3CC)c3cc(Br)cc(C)c32)C1` (stereo not drawn) [Example 59], the negative logarithm of the IC50 (pIC50) – broadly, the negative decadic logarithm of the IC50, by convention in mol/L – is 6.09 in test [1] (setting [4]), 5.16 in test [2] (setting [5]) and 4.34 in test [3] (setting [6]).
Turning to `C=CC(=O)N1CC(NC(=O)Cn2cc(-c3ccccc3-c3ccccc3)c3cc(Br)cc(C)c32)C1` [Example 62], the negative logarithm of the IC50 (pIC50) was 5.93 in test [1] (setting [4]), 6.60 in test [1] (setting [7]), 5.15 in test [2] (setting [8]) and < 4.48 in test [3] (setting [9]).
Regarding `C=CC(=O)N1CC(N(C)C(=O)Cn2cc(I)c3cc(I)ccc32)C1` [Example 66], the pIC50 in test [1] (setting [10]) was 4.71; in test [1] (setting [4]) it was 5.62; in test [1] (setting [7]) it was 7.00; in test [2] (setting [8]), 5.07; in test [3] (setting [9]), < 4.48.
The like results for `C=CC(=O)N1CC(NC(=O)Cn2c(C)c(-c3ccccc3-c3ccccc3)c3cc(Cl)ccc32)C1` [Example 67] were, in that order, 5.41, 6.08, 6.62, 5.06 and < 4.00.
On to `C=CC(=O)N1CC(NC(=O)Cn2cc(C(=O)N3CCc4c(cccc4OC)C3)c3cc(Cl)cc(Cl)c32)C1` [Example 69], for which the negative-log IC50 (pIC50) was 6.72 in test [1] (setting [4]), 6.89 in test [1] (setting [7]), 5.03 in test [2] (setting [5]) and < 4.00 in test [3] (setting [6]).
Take `C=CC(=O)N1CC(NC(=O)Cn2cc(I)c3ccc(Br)cc32)C1` [Example 70]: the pIC50 is 5.05 in test [1] (setting [4]), 5.77 in test [1] (setting [7]), 5.00 in test [2] (setting [8]) and < 4.00 in test [3] (setting [9]).
The like results for `C=CC(=O)N1CC(NC(=O)Cn2c3ccccc3c3cc(Br)ccc32)C1` [Example 71] were, in that order, 5.45, 6.28, 4.97 and < 4.00.
Regarding `C=CC(=O)N1CC(NC(=O)Cn2cc(C(=O)N3CCc4c(C)cccc4C3)c3cc(Cl)cc(Cl)c32)C1` [Example 74], the pIC50 is 6.66 in test [1] (setting [4]), 6.77 in test [1] (setting [7]), 4.95 in test [2] (setting [5]) and < 4.00 in test [3] (setting [6]).
In the case of `C=CC(=O)N1CC(NC(=O)Cn2c3ccc(Br)cc3c3c(Cl)ccnc32)C1` [Example 75], the pIC50 in test [1] (setting [4]) was 5.43; in test [1] (setting [7]), 6.37; in test [2] (setting [8]) it was 4.95; in test [3] (setting [9]), < 4.00.
Take `C=CC(=O)N1CC(NC(=O)Cn2cc(C(=O)N3CCc4c(cccc4OC)C3)c3cc(Br)ccc32)C1` [Example 76]: the negative logarithm of the IC50 (pIC50) is 6.19 in test [1] (setting [4]), 6.77 in test [1] (setting [7]), 4.94 in test [2] (setting [5]) and < 4.00 in test [3] (setting [6]).
On to `C=CC(=O)N1CC(NC(=O)Cn2cc(-c3ccccc3C)c3cc(Cl)ccc32)C1` [Example 78], for which the pIC50 is 4.48 in test [1] (setting [10]); 5.26 in test [1] (setting [4]); 5.92 in test [1] (setting [7]); 4.93 in test [2] (setting [8]); < 4.00 in test [3] (setting [9]).
As for `C=CC(=O)N1CC(NC(=O)Cn2cc(C(=O)N3CCc4c(Br)cc(C)cc4C3)c3cc(Br)cc(C)c32)C1` [Example 80], the pIC50 in test [1] (setting [4]) was 6.48; in test [1] (setting [7]), 6.82; in test [2] (setting [5]), 4.91; in test [3] (setting [6]) it was 4.59.
Take `C=CC(=O)N1CC(NC(=O)Cn2cc(I)c3cc(Br)ccc32)C1` [Example 85]: the pIC50 is 4.63 in test [1] (setting [10]); 5.42 in test [1] (setting [4]); 6.31 in test [1] (setting [7]); 4.85 in test [2] (setting [8]); < 4.00 in test [3] (setting [9]).
Regarding `C=CC(=O)N1CC(NC(=O)Cn2cc(C(=O)N3CCc4c(C)cccc4C3)c3cc(Br)ccc32)C1` [Example 86], the pIC50 is 6.17 in test [1] (setting [4]), 6.77 in test [1] (setting [7]), 4.85 in test [2] (setting [5]) and < 4.00 in test [3] (setting [6]).
Consider `C=CC(=O)N1CC(NC(=O)Cn2cc(I)c3cc(Br)cc(CC)c32)C1` [Example 87], for which the pIC50 in test [1] (setting [4]) was 5.32; in test [1] (setting [7]) it was 6.04; in test [2] (setting [8]), 4.83; in test [3] (setting [9]) it was < 4.00.
Regarding `C=CC(=O)N1CC(NC(=O)Cn2c(C(=O)NCc3ccccc3CN(C)C)cc3cc(Br)ccc32)C1` [Example 88], the pIC50 in test [1] (setting [4]) was 5.49; in test [1] (setting [7]), 6.14; in test [2] (setting [8]), 4.83; in test [3] (setting [9]), < 4.00.
As for `C=CC(=O)N1CC(N2CCC(n3cc(I)c4cc(Cl)ccc43)C2=O)C1` (stereo not drawn) [Example 90], the pIC50 in test [1] (setting [10]) was 4.21; in test [1] (setting [4]), 5.37; in test [1] (setting [7]), 6.32; in test [2] (setting [8]) it was 4.80; in test [3] (setting [9]) it was < 4.00.
As for `C=CC(=O)N1CC(NC(=O)Cn2cc(Br)c3cc(Cl)cc(C)c32)C1` [Example 91], the pIC50 is 5.50 in test [1] (setting [4]), 6.43 in test [1] (setting [7]), 4.79 in test [2] (setting [8]) and < 4.00 in test [3] (setting [9]).
With `C=CC(=O)N1CC(NC(=O)Cn2cc(C(=O)N3CCc4c(Br)cc(C)cc4C3)c3cc(Cl)cc(Cl)c32)C1` [Example 92], the negative logarithm of the IC50 (pIC50) is 6.41 in test [1] (setting [4]), 6.74 in test [1] (setting [7]), 4.78 in test [2] (setting [5]) and < 4.00 in test [3] (setting [6]).
For `C=CC(=O)N1CC(NC(=O)Cn2cc(C(=O)N3CCc4c(C)cccc4C3)c3cc(Br)cc(C)c32)C1` [Example 94], in that order: 6.68, 6.89, 4.78 and < 4.00.
As for `C=CC(=O)N1CC(NC(=O)Cn2cc(I)c3cc(Br)c(C)cc32)C1` [Example 95], the pIC50 in test [1] (setting [4]) was 5.24; in test [1] (setting [7]) it was 5.96; in test [2] (setting [8]), 4.78; in test [3] (setting [9]), < 4.00.
For the compound `C=CC(=O)N1CC(NC(=O)Cn2c(C)c(-c3ccccc3N(C)C)c3cc(Cl)ccc32)C1` [Example 98], the pIC50 in test [1] (setting [4]) was 5.95; in test [2] (setting [8]) it was 4.74; in test [3] (setting [9]), 4.88.
As to `C=CC(=O)N1CC(NC(=O)Cn2c(C)c(-c3cccc4nc(C)ccc34)c3cc(Cl)ccc32)C1` [Example 101], the pIC50 in test [1] (setting [4]) was 5.95; in test [2] (setting [8]), 4.69; in test [3] (setting [9]), 4.25.
Take `C=CC(=O)N1CC(NC(=O)Cn2c3c(c4cc(Br)ccc42)CCCCC3)C1` [Example 102]: the negative logarithm of the IC50 (pIC50) in test [1] (setting [4]) is 5.31; in test [1] (setting [7]) it was 6.05; in test [2] (setting [8]), 4.67; in test [3] (setting [9]) it was < 4.00.
As to `C=CC(=O)N1CC(NC(=O)Cn2cc(-c3cccnc3OC(C)C)c3cc(Br)ccc32)C1` [Example 105], the figures for the pIC50 in test [1] (setting [4]), in test [2] (setting [8]) and in test [3] (setting [9]) were 5.19, 4.66 and 4.95, respectively.
For the compound `C=CC(=O)N1CC(N(C)C(=O)Cn2cc(C(=O)N3CCc4c(cccc4OC)C3)c3cc(Br)ccc32)C1` [Example 107], the negative logarithm of the IC50 (pIC50) in test [1] (setting [4]) was 6.23; in test [1] (setting [7]), 6.74; in test [2] (setting [5]), 4.64; in test [3] (setting [6]) it was < 4.00.
Take `C=CC(=O)N1CC(NC(=O)Cn2cc(-c3cccc4ccccc34)c3cc(Br)cc(C)c32)C1` [Example 110]: the negative logarithm of the IC50 (pIC50) in test [1] (setting [4]) was 5.36; in test [1] (setting [7]) it was 5.92; in test [2] (setting [8]) it was 4.60; in test [3] (setting [9]), 4.38.
For `C=CC(=O)N1CC(NC(=O)Cn2c(C(=O)OC)c(I)c3cc(Br)ccc32)C1` [Example 111], in that order: 5.70, 6.46, 4.60 and < 4.00.
Consider `C=CC(=O)N1CC(NC(=O)Cn2cc(-c3ccccc3-c3ccccc3)c3cc(Cl)ccc32)C1` [Example 112], for which the pIC50 was 5.40 in test [1] (setting [10]); 5.63 in test [1] (setting [4]); 6.15 in test [1] (setting [7]); 4.59 in test [2] (setting [8]); < 4.00 in test [3] (setting [9]).
Regarding `C=CC(=O)N1CC(NC(=O)Cn2c(C)c(-c3ccccc3OC(C)C)c3cc(Cl)ccc32)C1` [Example 113], the pIC50 in test [1] (setting [4]) is 6.05; in test [2] (setting [8]), 4.58; in test [3] (setting [9]), < 4.00.
The like results for `C=CC(=O)N1CC(NC(=O)Cn2c(C)c(-c3cccnc3OC(C)C)c3cc(Br)ccc32)C1` [Example 115] were, in that order, 5.56, 4.55 and < 4.00.
With `C=CC(=O)N1CC(NC(=O)Cn2c3ccccc3c3c(Br)cccc32)C1` [Example 117], the pIC50 in test [1] (setting [4]) is 5.69; in test [1] (setting [7]), 6.37; in test [2] (setting [8]), 4.53; in test [3] (setting [9]), < 4.00.
For `C=CC(=O)N1CC(NC(=O)Cn2cc(-c3ccccc3C(C)C)c3cc(Br)cc(C)c32)C1` [Example 119], in that order: 5.77, 6.41, 4.51 and < 4.00.
Take `C=CC(=O)N1CC(NC(=O)Cn2c(C)c(-c3ccccc3C)c3cc(Cl)ccc32)C1` [Example 121]: the negative-log IC50 (pIC50) in test [1] (setting [10]) was 4.91; in test [1] (setting [4]), 5.80; in test [1] (setting [7]) it was 6.38; in test [2] (setting [8]) it was 4.51; in test [3] (setting [9]), < 4.00.
As for `C=CC(=O)N1CC(NC(=O)Cn2cc(C(=O)N3CCc4ccc(C)cc4C3)c3cc(Br)ccc32)C1` [Example 122], the negative logarithm of the IC50 (pIC50) in test [1] (setting [4]) was 6.16; in test [1] (setting [7]), 6.77; in test [2] (setting [5]), 4.50; in test [3] (setting [6]), < 4.00.
For the compound `C=CC(=O)N1CC(NC(=O)Cn2c(C)c(-c3ccccc3OC)c3cc(Cl)ccc32)C1` [Example 125], the results for the negative-log IC50 (pIC50) in test [1] (setting [4]), in test [2] (setting [8]) and in test [3] (setting [9]) were 5.56, 4.47 and < 4.00, respectively.
